From patent US9796711B2, “Substituted pyrazolo[3,4-b]pyridin-6-carboxylic acids and method of use” (AbbVie S.àr.l., priority 2015, dated 2017) come the findings set out here.

The structures appear in SMILES notation.

Assay [1] deals with T1, ΔF508-CFTR (Homo sapiens, UniProt P13569, DEL508-508).
T1 construct: host or cells: CFBE41o-, doxycycline-inducible
Briefly: CFTR cell surface levels using HRP-tagged ΔF508-CFTR expressing CFBE cells, intrinsic corrector capacity. As to conditions: for EC50: read-out: EC50. Type of assay: cell-based. In short, it runs like this: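 Here the cells express ΔF508-CFTR with horseradish peroxidase inserted in extracellular loop 4, so only rescued channel at the surface gives luminescent signal. Compounds act on their own, 20 h at the reduced temperature of 33 °C; values are percent activity relative to DMSO and a 3 μM corrector.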

Assay [2] deals with T1, ΔF508-CFTR. The experiment in a line: CFTR cell surface levels using HRP-tagged ΔF508-CFTR expressing CFBE cells, in the presence of a co-corrector. It counts as cell-based. The conditions noted are these: HRP-tagged ΔF508-CFTR expressing CFBE cells, in the presence of 3 μM co-corrector; for EC50: read-out: EC50. In short, it runs like this: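 Cells were seeded with 0.5 μg/mL doxycycline and held 68 h at 37 °C. Test compounds plus 3 μM co-corrector (final 0.1% DMSO) were then added for 20 h at 33 °C. Washed cells received HRP substrate, and luminescence was normalized between DMSO and 3 μM co-corrector controls.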

[3] abbreviates: HRP-tagged ΔF508-CFTR expressing CFBE cells, intrinsic corrector capacity (no co-corrector), 33° C., 20 hours.
The mark [4] stands for this setting: HRP-tagged ΔF508-CFTR CFBE41o- cells, compounds alone (intrinsic corrector capacity), 20 hours at 33° C., positive control 3 μM corrector.
The mark [5] stands for this setting: HRP-tagged ΔF508-CFTR CFBE41o- cells, compounds alone (intrinsic corrector capacity), 20 hours at 33° C.

T1 sequence (P13569 with tags, fused parts or gaps DEL508-508): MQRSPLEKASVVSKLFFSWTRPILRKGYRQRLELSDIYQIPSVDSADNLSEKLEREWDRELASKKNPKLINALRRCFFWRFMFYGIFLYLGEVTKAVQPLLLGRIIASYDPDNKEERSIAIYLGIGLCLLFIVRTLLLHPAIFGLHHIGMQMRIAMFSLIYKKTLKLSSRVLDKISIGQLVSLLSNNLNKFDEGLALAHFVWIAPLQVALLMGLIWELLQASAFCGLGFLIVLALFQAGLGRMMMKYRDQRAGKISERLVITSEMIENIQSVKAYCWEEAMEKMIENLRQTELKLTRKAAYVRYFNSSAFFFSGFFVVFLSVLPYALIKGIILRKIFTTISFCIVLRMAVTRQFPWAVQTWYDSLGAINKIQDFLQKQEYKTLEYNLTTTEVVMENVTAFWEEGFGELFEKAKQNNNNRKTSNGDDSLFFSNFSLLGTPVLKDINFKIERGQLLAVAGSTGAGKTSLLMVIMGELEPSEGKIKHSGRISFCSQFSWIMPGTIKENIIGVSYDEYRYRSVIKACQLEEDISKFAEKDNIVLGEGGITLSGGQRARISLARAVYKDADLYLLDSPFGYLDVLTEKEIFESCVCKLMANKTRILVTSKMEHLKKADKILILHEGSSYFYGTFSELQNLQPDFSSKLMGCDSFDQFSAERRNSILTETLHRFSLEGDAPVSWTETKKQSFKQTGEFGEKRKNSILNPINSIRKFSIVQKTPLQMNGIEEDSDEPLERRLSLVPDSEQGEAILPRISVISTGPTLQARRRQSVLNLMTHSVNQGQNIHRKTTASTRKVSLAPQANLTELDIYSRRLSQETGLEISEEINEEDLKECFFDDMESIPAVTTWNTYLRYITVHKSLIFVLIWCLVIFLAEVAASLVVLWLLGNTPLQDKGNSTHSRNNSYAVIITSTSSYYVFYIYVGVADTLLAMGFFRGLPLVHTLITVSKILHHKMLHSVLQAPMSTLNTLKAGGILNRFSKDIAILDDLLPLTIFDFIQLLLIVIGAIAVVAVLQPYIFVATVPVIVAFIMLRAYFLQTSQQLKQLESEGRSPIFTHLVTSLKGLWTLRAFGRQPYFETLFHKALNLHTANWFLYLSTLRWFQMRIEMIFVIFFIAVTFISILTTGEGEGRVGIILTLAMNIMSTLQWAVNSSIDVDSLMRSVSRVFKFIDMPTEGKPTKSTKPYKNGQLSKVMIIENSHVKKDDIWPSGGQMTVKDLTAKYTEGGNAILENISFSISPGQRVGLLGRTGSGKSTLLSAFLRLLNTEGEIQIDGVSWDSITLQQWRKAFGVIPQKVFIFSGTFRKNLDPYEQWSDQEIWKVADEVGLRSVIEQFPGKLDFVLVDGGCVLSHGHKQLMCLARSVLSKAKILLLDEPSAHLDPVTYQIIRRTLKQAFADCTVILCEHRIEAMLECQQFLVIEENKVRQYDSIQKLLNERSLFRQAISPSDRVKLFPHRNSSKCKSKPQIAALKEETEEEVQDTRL

As usually defined, the EC50 is the concentration needed to bring the measured effect to its halfway point. With `O=C(O)c1cc(N2CCCCC2)c2c(C3CCC3)nn(-c3ccccc3)c2n1` [compound 408, 3-cyclobutyl-1-phenyl-4-(piperidin-1-yl)-1H-pyrazolo[3,4-b]pyridine-6-carboxylic acid], on ΔF508-CFTR [1] (setting [3]), the “% Activation” value amounted to 141.15% and the concentration for a half-maximal effect (EC50) is 0.932 µM. On ΔF508-CFTR [2], the “% Activation” value turned out to be 346.95% and the concentration for a half-maximal effect (EC50) worked out at 0.617 µM.

Consider `CCOCC1(F)CCN(c2cc(C(=O)O)nc3c2c(C2CCC2)nn3-c2ccccc2)CC1` [compound 461, 3-cyclobutyl-4-[4-(ethoxymethyl)-4-fluoropiperidin-1-yl]-1-phenyl-1H-pyrazolo[3,4-b]pyridine-6-carboxylic acid], for which the “% Activation” value at ΔF508-CFTR [1] (setting [3]) came out at 158.55%; on ΔF508-CFTR [2], 328.05%. Also, the concentration for a half-maximal effect (EC50) was 0.818 µM on ΔF508-CFTR [1] (setting [3]) and 0.343 µM at ΔF508-CFTR [2].

In the case of `O=C(O)c1cc(N2CCC(N3CCCC(F)C3)CC2)c2c(C3CCC3)nn(-c3ccc(F)cc3)c2n1` (centres unmarked) [compound 872, 3-cyclobutyl-4-(3-fluoro[1,4′-bipiperidin]-1′-yl)-1-(4-fluorophenyl)-1H-pyrazolo[3,4-b]pyridine-6-carboxylic acid], on ΔF508-CFTR [1] (setting [3]), the “% Activation” value is on record as 368.7% and the EC50 is 0.591 µM. At ΔF508-CFTR [2], the “% Activation” value is 548.45% and the EC50 is 0.172 µM.

Consider `O=C(O)c1cc(N2CCN(CCCN3CCOCC3)CC2)c2c(C3CCC3)nn(-c3ccccc3)c2n1` [compound 558, 3-cyclobutyl-4-{4-[3-(morpholin-4-yl)propyl]piperazin-1-yl}-1-phenyl-1H-pyrazolo[3,4-b]pyridine-6-carboxylic acid], for which, at ΔF508-CFTR [1] (setting [3]), the “% Activation” value came to 121.3% and the EC50 was 1.37 µM. Besides, at ΔF508-CFTR [2], the “% Activation” value turned out to be 322.5% and the EC50 turned out to be 0.778 µM.

Turning to `O=C(O)c1cc(N2CCC(F)(CO)CC2)c2c(C3CCC3)nn(-c3ccccc3)c2n1` [compound 517, 3-cyclobutyl-4-[4-fluoro-4-(hydroxymethyl)piperidin-1-yl]-1-phenyl-1H-pyrazolo[3,4-b]pyridine-6-carboxylic acid], at ΔF508-CFTR [1] (setting [3]), the “% Activation” value is 82.63% and the 50% effective concentration (EC50) turned out to be 0.646 µM. At ΔF508-CFTR [2], the “% Activation” value is recorded as 303.2% and the EC50 came out at 0.575 µM.

With `COCC1CCCN(c2cc(C(=O)O)nc3c2c(C2CCC2)nn3-c2ccccc2)C1` (centres unmarked) [compound 373, 3-cyclobutyl-4-[3-(methoxymethyl)piperidin-1-yl]-1-phenyl-1H-pyrazolo[3,4-b]pyridine-6-carboxylic acid], the “% Activation” value on ΔF508-CFTR [1] (setting [4]) was 126.3%; at ΔF508-CFTR [2], 306.9%. Further, the EC50 at ΔF508-CFTR [1] (setting [5]) amounted to 0.469 µM; on ΔF508-CFTR [2], 0.304 µM.

For the compound `Cc1nn(-c2ccccc2)c2nc(C(=O)O)cc(OC[C@H](F)C3CCN(C)CC3)c12` [compound 380, 4-[(2R)-2-fluoro-2-(1-methylpiperidin-4-yl)ethoxy]-3-methyl-1-phenyl-1H-pyrazolo[3,4-b]pyridine-6-carboxylic acid], the results for the “% Activation” value at ΔF508-CFTR [1] (setting [4]) and on ΔF508-CFTR [2] were 14.735% and 141.7%, respectively. In addition, the EC50 on ΔF508-CFTR [1] (setting [5]) came out at 5.01 µM; on ΔF508-CFTR [2], 0.95 µM.

`O=C(O)c1cc(N2CCC3(CC2)CC(O)C3)c2c(C3CCC3)nn(-c3ccccc3)c2n1` [compound 543, 3-cyclobutyl-4-(2-hydroxy-7-azaspiro[3.5]nonan-7-yl)-1-phenyl-1H-pyrazolo[3,4-b]pyridine-6-carboxylic acid]: at ΔF508-CFTR [1] (setting [3]), the “% Activation” value is 129.15% and the EC50 stood at 0.304 µM. For the same compound, on ΔF508-CFTR [2], the “% Activation” value was determined as 304.9% and the 50% effective concentration (EC50) worked out at 0.242 µM.

With `O=C(O)c1cc(N2CCC3(CCCO3)C2)c2c(C3CCC3)nn(-c3ccccc3)c2n1` (centres unmarked) [compound 518, 3-cyclobutyl-4-(1-oxa-7-azaspiro[4.4]nonan-7-yl)-1-phenyl-1H-pyrazolo[3,4-b]pyridine-6-carboxylic acid], the figures for the “% Activation” value on ΔF508-CFTR [1] (setting [3]) and at ΔF508-CFTR [2] were 62.95% and 237%, respectively. Moreover, the 50% effective concentration (EC50) is 0.371 µM at ΔF508-CFTR [1] (setting [3]) and 0.531 µM at ΔF508-CFTR [2].

Regarding `CC(C)OC1CN(c2cc(C(=O)O)nc3c2c(C2CCC2)nn3-c2ccccc2)C1` [compound 573, 3-cyclobutyl-1-phenyl-4-{3-[(propan-2-yl)oxy]azetidin-1-yl}-1H-pyrazolo[3,4-b]pyridine-6-carboxylic acid], at ΔF508-CFTR [1] (setting [3]), the “% Activation” value turned out to be 149.7% and the concentration for a half-maximal effect (EC50) was 0.974 µM. On ΔF508-CFTR [2], the “% Activation” value is reported as 376% and the 50% effective concentration (EC50) turned out to be 0.299 µM.

Turning to `Cc1nn(-c2ccccc2)c2nc(C(=O)O)cc(O[C@H]3C[C@@H](N(C)C)C3)c12` [compound 340, 4-{[cis-3-(dimethylamino)cyclobutyl]oxy}-3-methyl-1-phenyl-1H-pyrazolo[3,4-b]pyridine-6-carboxylic acid], the “% Activation” value was determined as 18.86% at ΔF508-CFTR [1] (setting [4]) and 146% on ΔF508-CFTR [2]. The EC50 is 7.5 µM on ΔF508-CFTR [1] (setting [5]) and 4.17 µM on ΔF508-CFTR [2].

`Cc1nn(-c2ccc(F)cc2F)c2nc(C(=O)O)cc(-c3ccc(N4CCOCC4)nc3)c12` [compound 104, 1-(2,4-difluorophenyl)-3-methyl-4-[6-(morpholin-4-yl)pyridin-3-yl]-1H-pyrazolo[3,4-b]pyridine-6-carboxylic acid]: the results for the “% Activation” value on ΔF508-CFTR [1] (setting [4]) and on ΔF508-CFTR [2] were 130.4% and 308.55%, respectively. Further, the concentration giving a half-maximal response (EC50) at ΔF508-CFTR [1] (setting [5]) was found to be 1.24 µM; at ΔF508-CFTR [2] it was 1.01 µM.

As for `CC(C)c1nn(-c2ccc(F)cc2)c2nc(C(=O)O)cc(N3CCC(CO)CC3)c12` [compound 394, 1-(4-fluorophenyl)-4-[4-(hydroxymethyl)piperidin-1-yl]-3-(propan-2-yl)-1H-pyrazolo[3,4-b]pyridine-6-carboxylic acid], the figures for the “% Activation” value at ΔF508-CFTR [1] (setting [4]) and at ΔF508-CFTR [2] were 235.1% and 392.57%, respectively. Also, the EC50 at ΔF508-CFTR [1] (setting [5]) stood at 1.49 µM; on ΔF508-CFTR [2], 0.677 µM.

On to `O=C(O)c1cc(OCCC2CCOCC2)c2c(C3CCC3)nn(-c3ccccc3)c2n1` [compound 414, 3-cyclobutyl-4-[2-(oxan-4-yl)ethoxy]-1-phenyl-1H-pyrazolo[3,4-b]pyridine-6-carboxylic acid], for which, at ΔF508-CFTR [1] (setting [3]), the “% Activation” value was found to be 120.3% and the concentration giving a half-maximal response (EC50) was 0.692 µM. Further, on ΔF508-CFTR [2], the “% Activation” value is recorded as 295.15% and the EC50 amounted to 0.373 µM.

`CCCCOC1CCN(c2cc(C(=O)O)nc3c2c(C(C)C)nn3-c2ccc(F)cc2)CC1` [compound 395, 4-(4-butoxypiperidin-1-yl)-1-(4-fluorophenyl)-3-(propan-2-yl)-1H-pyrazolo[3,4-b]pyridine-6-carboxylic acid]: at ΔF508-CFTR [1] (setting [3]), the “% Activation” value stood at 223.6% and the concentration for a half-maximal effect (EC50) was 0.438 µM. At ΔF508-CFTR [2], the “% Activation” value turned out to be 480.35% and the EC50 came to 0.549 µM.

For the compound `COCC1CCN(c2cc(C(=O)O)nc3c2c(C)nn3-c2ccccc2)CC1` [compound 291, 4-[4-(methoxymethyl)piperidin-1-yl]-3-methyl-1-phenyl-1H-pyrazolo[3,4-b]pyridine-6-carboxylic acid], the entries for the “% Activation” value at ΔF508-CFTR [1] (setting [4]) and at ΔF508-CFTR [2] were 168.85% and 349.55%, respectively. The EC50 on ΔF508-CFTR [1] (setting [5]) came out at 1.71 µM; at ΔF508-CFTR [2], 1.4 µM.

Consider `Cc1nn(-c2ccccc2)c2nc(C(=O)O)cc(OCC3CCCCC3)c12` [compound 152, 4-(cyclohexylmethoxy)-3-methyl-1-phenyl-1H-pyrazolo[3,4-b]pyridine-6-carboxylic acid], for which the “% Activation” value at ΔF508-CFTR [1] (setting [4]) was 75.36%; on ΔF508-CFTR [2], 253.1%. Besides, the EC50 on ΔF508-CFTR [1] (setting [5]) stood at 2.63 µM; on ΔF508-CFTR [2], 2.09 µM.
